*1 amine or outer side, *2 acyl side, *3 side chain or, on linkers, in order; H or OH if unused. Where a SMILES comes first, the peptide text is derived from it. Bridges are numbered along the chain shown (N, C = ends). [ ]: non-standard residue; d: D form. X1 = O=C(O)CCCCCCCCCCCCCCCCCCC(=O)N[C@@H](CCCCNC(=O)COCCOCCNC(=O)COCCOCCNC(=O)CCC(=O)N(CCNC(=O)C[*:1])CCNC(=O)C[*:2])C(=O)O; Phe(2-F) = N[C@@H](Cc1ccccc1F)C(=O)O; Iva = CC[C@](C)(N)C(=O)O; Aib = CC(C)(N)C(=O)O
Legend:
GIPR [1] = target: T1, GIPR (Homo sapiens, UniProt P48546); test: CreLuc method (CRE-luciferase reporter), HEK293/pGM-CREB-L-Luc/GIPR pool; format: cell-based; conditions: 6 h incubation, read-out: EC50 (pM) for each receptor GIPR
T1 construct: expressed in transfected cells
T1 sequence (P48546 22-466): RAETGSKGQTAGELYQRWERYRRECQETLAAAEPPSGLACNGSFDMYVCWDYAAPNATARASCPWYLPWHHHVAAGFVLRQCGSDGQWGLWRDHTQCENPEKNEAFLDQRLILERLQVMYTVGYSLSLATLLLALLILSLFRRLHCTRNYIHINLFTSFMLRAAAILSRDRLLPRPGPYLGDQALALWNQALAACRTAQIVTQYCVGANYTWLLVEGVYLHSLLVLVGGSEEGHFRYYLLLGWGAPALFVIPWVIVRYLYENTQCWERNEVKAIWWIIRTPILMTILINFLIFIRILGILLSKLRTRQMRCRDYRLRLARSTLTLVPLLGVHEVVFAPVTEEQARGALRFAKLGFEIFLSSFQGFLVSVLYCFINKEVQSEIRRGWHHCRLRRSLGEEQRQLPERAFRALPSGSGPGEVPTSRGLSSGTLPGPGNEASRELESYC
Procedure, shortened: (§1)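 Stable HEK293 pools co-expressing each receptor with a CRE-luciferase reporter were plated at 20,000 cells/well in freestyle medium and treated with compound dilution series for 6 h at 37 °C. Luminescence was read with ONE-GLO to derive EC50.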

GCGR [2] = target: T2, GCGR (Homo sapiens, UniProt P47871); test: CreLuc method (CRE-luciferase reporter), 293HEK/pGM-CREB-L-Luc/GCGR pool; format: cell-based; conditions: 6 h incubation, read-out: EC50 (pM) for each receptor GCGR
T2 construct: expressed in transfected cells
Procedure, shortened: as §1

GLP-1R = target: T3, GLP-1R (Homo sapiens, UniProt P43220); test: cAMP method (HTRF cAMP detection kit), HEK293/pGM-CREB-L-Luc/GLP-1 pool; format: cell-based; conditions: read-out: EC50 (pM) for each receptor GLP-1R
T3 construct: expressed in transfected cells

GIPR [3] = target: T1, GIPR; test: cAMP method (HTRF cAMP detection kit), HEK293/pGM-CREB-L-Luc/GIP pool; format: cell-based; conditions: read-out: EC50 (pM) for each receptor GIPR
GCGR [4] = target: T2, GCGR; test: cAMP method (HTRF cAMP detection kit), HEK293/pGM-CREB-L-Luc/GCG pool; format: cell-based; conditions: read-out: EC50 (pM) for each receptor GCGR
in vivo = test: in vivo; set-up: species or system adult male cynomolgus monkeys; conditions: male, cynomolgus monkey, 0.2 mg/kg
Description: The pharmacokinetic behavior of TG52 in non-rodents was tested. The specific steps are as follows:
The target peptide derivative TG52 to be tested was administered to adult male cynomolgus monkeys via subcutaneous and intravenous injections (0.2 mg/kg, with PBS as the drug vehicle) as a single dose, respectively. Whole blood samples were collected from the jugular vein or other appropriate vein at the following time points after administration: for SC, 0 min, 30 min, 1 h, 3 h, 7 h, 24 h, 48 h, 72 h, 120 h, 168 h, 216 h, and 264 h; for IV, 0 min, 5 min, 30 min, 1 h, 3 h, 7 h, 24 h, 48 h, 72 h, 120 h, 168 h, 216 h, and 264 h. 0.2 mL of blood was collected and transferred into a labeled EDTA-K2 anticoagulant tube. The tube was gently inverted to ensure thorough mixing of the anticoagulant (EDTA-K2) with the blood and immediately placed on wet ice. Plasma separation was performed as soon as possible by centrifugation under the following conditions: 4°C, 6800xg, for 6 min. The plasma samples were stored in a refrigerator at no higher than -20°C and used for analysis when needed. Analysis of the drug content in the blood samples was performed using the analytical method described above. Table 5C: Pharmacokinetic parameters of TG52 in cynomolgus monkeys

T2 sequence (P47871 26-477, species assumed): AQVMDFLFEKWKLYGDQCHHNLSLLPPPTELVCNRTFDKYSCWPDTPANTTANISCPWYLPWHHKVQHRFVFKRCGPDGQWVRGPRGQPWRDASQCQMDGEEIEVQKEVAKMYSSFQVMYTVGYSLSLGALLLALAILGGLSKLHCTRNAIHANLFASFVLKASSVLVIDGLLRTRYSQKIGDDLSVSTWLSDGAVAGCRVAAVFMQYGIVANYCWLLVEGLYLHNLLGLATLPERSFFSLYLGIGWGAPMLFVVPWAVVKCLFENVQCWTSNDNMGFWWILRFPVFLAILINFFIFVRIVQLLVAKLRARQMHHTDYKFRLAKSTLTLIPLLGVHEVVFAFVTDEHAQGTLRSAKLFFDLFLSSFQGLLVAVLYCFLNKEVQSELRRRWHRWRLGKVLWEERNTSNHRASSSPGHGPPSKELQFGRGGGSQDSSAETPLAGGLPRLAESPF
T3 sequence (P43220 24-463, species assumed): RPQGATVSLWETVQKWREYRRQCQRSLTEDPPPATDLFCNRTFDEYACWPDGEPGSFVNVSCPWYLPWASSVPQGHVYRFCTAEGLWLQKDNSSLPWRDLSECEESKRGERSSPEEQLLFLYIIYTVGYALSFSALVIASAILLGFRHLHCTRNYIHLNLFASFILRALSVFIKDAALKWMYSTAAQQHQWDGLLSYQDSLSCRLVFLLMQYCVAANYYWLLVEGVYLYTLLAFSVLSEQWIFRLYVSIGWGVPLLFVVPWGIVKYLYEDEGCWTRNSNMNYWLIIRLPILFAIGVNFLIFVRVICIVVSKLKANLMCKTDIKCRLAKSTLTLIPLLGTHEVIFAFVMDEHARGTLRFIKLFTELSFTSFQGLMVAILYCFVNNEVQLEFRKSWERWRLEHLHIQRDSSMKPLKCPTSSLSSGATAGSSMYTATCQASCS

Structure (SMILES): CC[C@H](C)[C@@H]1NC(=O)[C@H](Cc2ccccc2)NC(=O)[C@@H](NC(=O)C(C)(C)NC(=O)[C@H](CCC(N)=O)NC(=O)[C@H](C)NC(=O)[C@H](CCCCNC(C)=O)NC(=O)[C@H](CCCCN)NC(=O)[C@H](CC(=O)O)NC(=O)[C@H](CC(C)C)NC(=O)[C@](C)(CC)NC(=O)[C@@H](NC(=O)[C@H](CO)NC(=O)[C@H](Cc2ccc(O)cc2)NC(=O)[C@H](CC(=O)O)NC(=O)[C@H](CO)NC(=O)[C@@H](NC(=O)[C@H](Cc2ccccc2F)NC(=O)[C@@H](NC(=O)CNC(=O)[C@H](CCC(N)=O)NC(=O)C(C)(C)NC(=O)[C@@H](N)Cc2ccc(O)cc2)[C@@H](C)O)[C@@H](C)O)[C@@H](C)CC)CSCC(=O)NCCN(C(=O)CCC(=O)NCCOCCOCC(=O)NCCOCCOCC(=O)NCCCC[C@H](NC(=O)CCCCCCCCCCCCCCCCCCC(=O)O)C(=O)O)CCNC(=O)CSC[C@@H](C(=O)NCC(=O)NCC(=O)N2CCC[C@H]2C(=O)N[C@@H](CO)C(=O)N[C@@H](CO)C(=O)NCC(=O)N[C@@H](C)C(=O)N2CCC[C@H]2C(=O)N2CCC[C@H]2C(=O)N2CCC[C@H]2C(=O)N[C@@H](CO)C(N)=O)NC(=O)[C@H](CC(C)C)NC(=O)[C@H](CC(C)C)NC(=O)[C@H](Cc2ccc(O)cc2)NC(=O)[C@H](CCC(=O)O)NC1=O [TG52] (H-Y[Aib]QGT[Phe(2-F)]TSDYSI[Iva]LDKK(Ac)AQ[Aib]CFIEYLLCGGPSSGAPPPS-NH2; linker 21-28 via X1)
- EC50 (GIPR [1]): 18.9 pM
- EC50 (GCGR [2]): 173 pM
- EC50 (GLP-1R): 4.1 pM
- EC50 (GIPR [3]): 3.8 pM
- EC50 (GCGR [4]): 8.8 pM
- AUC(0-inf) (in vivo; iv): 302 µg·h/mL
- AUC(0-t) (in vivo; iv): 278 µg·h/mL
- Vd (in vivo; iv): 0.0626 L/kg
- clearance (in vivo; iv): 16 mL/day/kg
- half-life (in vivo; iv): 88.3 h
- AUC(0-t) (in vivo; sc): 199 µg·h/mL
- Cmax (in vivo; sc): 1760 ng/mL
- Tmax (in vivo; sc): 18.3 h
- bioavailability (in vivo; sc): 75.7%
- half-life (in vivo; sc): 97.2 h

— patent EP4790066A1, “GLP-1R/GIPR/GCGR TRIPLE AGONIST ANALOGUE AND USE THEREOF” (Shenzhen Bay Laboratory, priority 2023, dated 2025)
